Several values for one entry are separate records, joined by “and”; a condition that tells them apart may be missing. Identical values can stand only once. Inconclusive results and toxic doses are left out. Numbered stars: 1 amine (or outer) side, 2 acyl side, 3 side chain; on linkers, the order of the positions; unused ones are H or OH. Square brackets hold non-standard residues; d marks the D form. Peptide text beside a SMILES is read from it. * marks the point of attachment. ξ: configuration not given here. X4 = CCC(=O)CC(O)CC(C)CC(N[*:1])C(=O)[*:2]; ξLeu(3ξ-OH) = CC(C)C(O)C(N)C(=O)O; ξPro(4ξ-Me) = CC1CNC(C(=O)O)C1; X3 = CCC(C)/C=C/C(=O)*; Aib = CC(C)(N)C(=O)O; X5 = CC(CN(C)C)N*; βAla = NCCC(=O)O
System: P388 leukemia ip, CD2F1 mice, survival T/C
Assay: NCI In Vivo Anticancer Drug Screen. Data for tumor model P388 Leukemia (intraperitoneal) in CD2F1 (CDF1) mice
Settings: endpoint: median survival time, higher = longer survival
Procedure, shortened: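 Mice carrying the transplanted tumor received test compound or vehicle. Survival was recorded in each group, and the value is the treated-group measurement divided by that of the vehicle-treated control group.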

[1] = dose: 50.0 mg/kg/injection, schedule: Q01DX005 (ip), vehicle: Klucel (hydroxypropylcellulose) (HPC)
[2] = dose: 100.0 mg/kg/injection, schedule: Q01DX005 (ip), vehicle: Klucel (hydroxypropylcellulose) (HPC)
[3] = dose: 200.0 mg/kg/injection, schedule: Q01DX005 (ip), vehicle: Klucel (hydroxypropylcellulose) (HPC)
[4] = dose: 50.0 mg/kg/injection, schedule: Q01DX005 (ip), vehicle: saline with Tween-80
[5] = dose: 100.0 mg/kg/injection, schedule: Q01DX005 (ip), vehicle: saline with Tween-80
[6] = dose: 12.5 mg/kg/injection, schedule: Q01DX009 (ip), vehicle: Klucel (hydroxypropylcellulose) (HPC)
[7] = dose: 50.0 mg/kg/injection, schedule: Q01DX005 (ip), vehicle: saline + Tween-80 + alcohol
[8] = dose: 100.0 mg/kg/injection, schedule: Q01DX005 (ip), vehicle: saline + Tween-80 + alcohol
[9] = dose: 200.0 mg/kg/injection, schedule: Q01DX005 (ip), vehicle: saline + Tween-80 + alcohol
[10] = dose: 50.0 mg/kg/injection, schedule: Q01DX009 (ip), vehicle: saline
[11] = dose: 12.5 mg/kg/injection, schedule: Q01DX009 (ip), vehicle: saline
[12] = dose: 25.0 mg/kg/injection, schedule: Q01DX009 (ip), vehicle: saline
[13] = dose: 50.0 mg/kg/injection, schedule: Q01DX009 (ip), vehicle: Klucel (hydroxypropylcellulose) (HPC)
[14] = dose: 60.0 mg/kg/injection, schedule: Q01DX005 (ip), vehicle: saline with Tween-80
[15] = dose: 120.0 mg/kg/injection, schedule: Q01DX005 (ip), vehicle: saline with Tween-80
[16] = dose: 240.0 mg/kg/injection, schedule: Q01DX005 (ip), vehicle: saline with Tween-80

For `CCC(=O)CC(O)CC(C)CC(NC(=O)C1CC(C)CN1C(=O)/C=C/C(C)CC)C(=O)NC(C(=O)NC(C)(C)C(=O)NC(CC(C)C)C(=O)NC(CC(C)C)C(=O)NC(C)(C)C(=O)NC(C)(C)C(=O)NCCC(=O)NC(C)CN(C)C)C(O)C(C)C` (configuration not stated) (X3-[ξPro(4ξ-Me)][X4][ξLeu(3ξ-OH)][Aib]LL[Aib][Aib][βAla]-X5; configuration not given here), the T/C (dose: 50.0 micrograms/kg/injection, schedule: Q01DX005 (ip), vehicle: saline + alcohol) was 101 % of control, the T/C (dose: 100.0 micrograms/kg/injection, schedule: Q01DX005 (ip), vehicle: saline + alcohol) was 101 % of control and the T/C (dose: 200.0 micrograms/kg/injection, schedule: Q01DX005 (ip), vehicle: saline + alcohol) was 101 % of control. The T/C (dose: 400.0 micrograms/kg/injection, schedule: Q01DX005 (ip), vehicle: saline + alcohol) was 111 % of control and the T/C (dose: 800.0 micrograms/kg/injection, schedule: Q01DX005 (ip), vehicle: saline + alcohol) was 110 % of control.
For `O=C(S)CC1(O)CCCCC1`, the T/C (dose: 100.0 mg/kg/injection, schedule: Q04DX003 (ip), vehicle: Klucel (hydroxypropylcellulose) (HPC)) was 99 % of control, the T/C (dose: 200.0 mg/kg/injection, schedule: Q04DX003 (ip), vehicle: Klucel (hydroxypropylcellulose) (HPC)) was 100 % of control and the T/C (dose: 400.0 mg/kg/injection, schedule: Q04DX003 (ip), vehicle: Klucel (hydroxypropylcellulose) (HPC)) was 96 % of control.
With `c1ccc2c(c1)CC/C2=N\OCC1CO1` (configuration not stated) the T/C (dose: 100.0 mg/kg/injection, schedule: Q04DX002 (ip), vehicle: saline with Tween-80) was 102 % of control, the T/C (dose: 200.0 mg/kg/injection, schedule: Q04DX002 (ip), vehicle: saline with Tween-80) was 104 % of control and the T/C (dose: 400.0 mg/kg/injection, schedule: Q04DX002 (ip), vehicle: saline with Tween-80) was 106 % of control.
`Cc1ccc(S(=O)(=O)ON=C2CC(c3ccccc3)N(C)C(c3ccccc3)C2)cc1` (configuration not stated) was tested, and the T/C [1] was 116 % of control and 101 % of control, the T/C [2] was 107 % of control and 104 % of control and the T/C [3] was 100 % of control.
In the case of `O=C(/C=C/C1CCCC(O)C1)C1CCCCC1` (configuration not stated), the T/C [4] is reported as 91 % of control, the T/C [5] is reported as 89 % of control and the T/C (dose: 200.0 mg/kg/injection, schedule: Q01DX005 (ip), vehicle: saline with Tween-80) is reported as 91 % of control.
In the case of `N#CN=[N+]([O-])c1ccccc1Br`, the T/C (dose: 3.12 mg/kg/injection, schedule: Q01DX009 (ip), vehicle: Klucel (hydroxypropylcellulose) (HPC)) is reported as 98 % of control, the T/C (dose: 6.25 mg/kg/injection, schedule: Q01DX009 (ip), vehicle: Klucel (hydroxypropylcellulose) (HPC)) is reported as 100 % of control and the T/C (dose: 6.25 mg/kg/injection, schedule: Q04DX003 (ip), vehicle: Klucel (hydroxypropylcellulose) (HPC)) is reported as 100 % of control. The T/C [6] was 114 % of control, the T/C (dose: 12.5 mg/kg/injection, schedule: Q04DX003 (ip), vehicle: Klucel (hydroxypropylcellulose) (HPC)) was 91 % of control and the T/C (dose: 25.0 mg/kg/injection, schedule: Q04DX003 (ip), vehicle: Klucel (hydroxypropylcellulose) (HPC)) was 87 % of control.
For `CCN(CC)CCN1c2ccccc2Sc2c1ccc1ccccc21`, the T/C [7] was 112 % of control, the T/C [8] was 107 % of control and the T/C [9] was 107 % of control.
In the case of `O=C1CSc2cc(F)ccc2N1`, the T/C [10] is reported as 91 % of control, the T/C (dose: 100.0 mg/kg/injection, schedule: Q01DX009 (ip), vehicle: saline) is reported as 91 % of control and the T/C (dose: 200.0 mg/kg/injection, schedule: Q01DX009 (ip), vehicle: saline) is reported as 97 % of control.
For `CC1(C)CC(=O)C(CC2C(=O)CC(C)(C)CC2=O)C(=O)C1`, the T/C (dose: 25.0 mg/kg/injection, schedule: Q01DX009 (ip), vehicle: saline with Tween-80) was 87 % of control, the T/C (dose: 50.0 mg/kg/injection, schedule: Q01DX009 (ip), vehicle: saline with Tween-80) was 97 % of control and the T/C (dose: 100.0 mg/kg/injection, schedule: Q01DX009 (ip), vehicle: saline with Tween-80) was 103 % of control. The T/C (dose: 200.0 mg/kg/injection, schedule: Q01DX009 (ip), vehicle: saline with Tween-80) was 95 % of control.
In the case of `CCOC(=O)C[N+]1(C)C2CCC1CC(OC(=O)C(CO)c1ccccc1)C2` (configuration not stated), the T/C [11] is reported as 100 % of control and the T/C [12] is reported as 100 % of control.
In the case of `O=[N+]([O-])c1ccc(C2CC(c3ccccc3)=Nc3ccccc3S2)cc1` (configuration not stated), the T/C [11] is reported as 97 % of control, the T/C [12] is reported as 92 % of control and the T/C [10] is reported as 97 % of control.
With `C=C1CC2(CCCCC2Cc2ccccc2)OC1=O` (configuration not stated) the T/C (dose: 100.0 mg/kg/injection, schedule: Q04DX002 (ip), vehicle: saline) was 100 % of control, the T/C (dose: 200.0 mg/kg/injection, schedule: Q04DX002 (ip), vehicle: saline) was 101 % of control and the T/C (dose: 400.0 mg/kg/injection, schedule: Q04DX002 (ip), vehicle: saline) was 99 % of control.
With `Cc1ccc(CCN2CSC(=S)N(CCc3ccc(C)cc3)C2)cc1` the T/C [6] was 101 % of control, the T/C (dose: 25.0 mg/kg/injection, schedule: Q01DX009 (ip), vehicle: Klucel (hydroxypropylcellulose) (HPC)) was 96 % of control and the T/C [13] was 100 % of control. The T/C (dose: 50.0 mg/kg/injection, schedule: Q01DX009 (ip), vehicle: other) was 96 % of control.
For `COc1cc(=O)[nH]c(-c2ccccc2)c1OC`, the T/C [14] was 99 % of control, the T/C [15] was 99 % of control and the T/C [16] was 99 % of control.
With `C=CCc1cc(/C(CC)=C(/CC)c2ccc(OCCN(CC)CC)c(CC=C)c2)ccc1OCCN(CC)CC` the T/C [7] was 99 % of control, the T/C [8] was 93 % of control and the T/C [9] was 104 % of control.
With `[CH3][Sn]([CH3])([O]C(=O)CNC(=O)c1ccccc1)[O]C(=O)CNC(=O)c1ccccc1` the T/C (dose: 0.79 mg/kg/injection, schedule: Q01DX001 (ip), vehicle: Klucel (hydroxypropylcellulose) (HPC)) was 97 % of control, the T/C (dose: 1.56 mg/kg/injection, schedule: Q01DX001 (ip), vehicle: Klucel (hydroxypropylcellulose) (HPC)) was 93 % of control and the T/C (dose: 3.12 mg/kg/injection, schedule: Q01DX001 (ip), vehicle: Klucel (hydroxypropylcellulose) (HPC)) was 100 % of control.
`COc1ccc(OCC2=NCCc3ccccc32)cc1` was tested, and the T/C [1] was 99 % of control, the T/C [2] was 107 % of control and the T/C [3] was 109 % of control.
With `C/C=C(\C)C(=O)OC1C2C(C)=CC(O)C(O)C2(C)C2C3(O)OCC24C1OC(=O)C(O)C4C(C)C3O` (configuration not stated) the T/C (dose: 2.5 mg/kg/injection, schedule: Q01DX005 (ip), vehicle: Klucel (hydroxypropylcellulose) (HPC)) was 108 % of control, the T/C (dose: 5.0 mg/kg/injection, schedule: Q01DX005 (ip), vehicle: Klucel (hydroxypropylcellulose) (HPC)) was 102 % of control and the T/C (dose: 10.0 mg/kg/injection, schedule: Q01DX005 (ip), vehicle: Klucel (hydroxypropylcellulose) (HPC)) was 100 % of control. For the same compound, the T/C (dose: 20.0 mg/kg/injection, schedule: Q01DX005 (ip), vehicle: Klucel (hydroxypropylcellulose) (HPC)) was 105 % of control.
In the case of `CN(C)c1nc(Cl)c2cc(Cl)ccc2n1`, the T/C (dose: 60.0 mg/kg/injection, schedule: Q01DX005 (ip), vehicle: Klucel (hydroxypropylcellulose) (HPC)) is reported as 100 % of control and the T/C (dose: 120.0 mg/kg/injection, schedule: Q01DX005 (ip), vehicle: Klucel (hydroxypropylcellulose) (HPC)) is reported as 99 % of control.
In the case of `O=C1C2=C(Nc3cc(Cl)ccc3N2)OC1c1c[nH]c2ccc(COc3ccccc3)cc12` (configuration not stated), the T/C [14] is reported as 93 % of control, the T/C [15] is reported as 93 % of control and the T/C [16] is reported as 89 % of control.
`CN(Cc1cnc2nc(N)nc(N)c2n1)c1ccc(C(=O)NC(CCC(=O)O)C(=O)O)cc1Br` (configuration not stated) was tested, and the T/C (dose: 0.62 mg/kg/injection, schedule: Q01DX009 (ip), vehicle: saline sonified) was 209 % of control, the T/C (dose: 1.25 mg/kg/injection, schedule: Q01DX009 (ip), vehicle: saline sonified) was 236 % of control and the T/C (dose: 2.5 mg/kg/injection, schedule: Q01DX009 (ip), vehicle: saline sonified) was 245 % of control. The T/C (dose: 5.0 mg/kg/injection, schedule: Q04DX003 (ip), vehicle: saline with Tween-80) was 200 % of control, the T/C (dose: 6.6 mg/kg/injection, schedule: Q04DX003 (ip), vehicle: saline with Tween-80) was 166 % of control and the T/C (dose: 10.0 mg/kg/injection, schedule: Q04DX003 (ip), vehicle: saline with Tween-80) was 166 % of control and 200 % of control.
In the case of `O=C(N/N=C\c1cc([N+](=O)[O-])ccc1O)C(=O)N/N=C\c1cc([N+](=O)[O-])ccc1O`, the T/C [13] is reported as 106 % of control, the T/C (dose: 100.0 mg/kg/injection, schedule: Q01DX009 (ip), vehicle: Klucel (hydroxypropylcellulose) (HPC)) is reported as 95 % of control and the T/C (dose: 200.0 mg/kg/injection, schedule: Q01DX009 (ip), vehicle: Klucel (hydroxypropylcellulose) (HPC)) is reported as 99 % of control.
In the case of `O=C(Nc1ccccc1-c1ccccc1)C(=O)Nc1ccccc1-c1ccccc1`, the T/C [4] is reported as 90 % of control and the T/C [5] is reported as 89 % of control.

From PubChem BioAssay AID330 (DTP/NCI, 2004)
